{"source": "patent US7018649B2", "about": "(Euro-Celtique, S.A., priority 2000, dated 2006)", "origin": "cited, not measured here", "key": {"[1]": {"details": "in vivo"}, "[2]": {"tested_on": "plasma-protein"}, "[3]": {"assay": "not given", "remark": "listed apart in the source"}}, "data": [{"compound": "CCOC(=O)C1=C(C)NC(C)=C(C(=O)OC)C1c1cccc(Cl)c1Cl", "note": "(racemic) [felodipine, 4-(2,3-dichlorophenyl)-1,4-dihydro-2,6-dimethyl-3,5-pyridinedicarboxylate]", "values": [{"measurement": "most common adverse side effects", "setting": "[1]", "value": "peripheral edema and headaches"}, {"measurement": "time to mean peak concentrations", "setting": "after administration", "value": "2.5 to 5", "unit": "h"}, {"measurement": "excretion in the feces", "setting": "after metabolism", "value": 10, "unit": "%"}, {"measurement": "excretion in the urine", "setting": "after metabolism", "value": 70, "unit": "%"}, {"measurement": "onset of antihypertensive activity", "setting": "following administration", "value": "2 to 5", "unit": "h"}, {"measurement": "plasma concentration at steady state", "setting": "in vivo", "value": 2, "unit": "ng/mL"}, {"measurement": "bioavailability", "setting": "oral dose, gastrointestinal absorption", "value": "approximately 20%"}, {"measurement": "plasma-protein bound", "setting": "[2]", "value": 99, "unit": "%"}, {"measurement": "solubility in dichloromethane and ethanol", "setting": "[3]; dichloromethane and ethanol", "value": "freely soluble"}, {"measurement": "solubility in water", "setting": "[3]; water", "value": "not soluble"}]}]}
